Measurements as given in US20230057359A1, “NOVEL USE OF STEVIOL” (SUNTORY HOLDINGS LIMITED, priority 2019, published 2023).

Legend:
Assay type in all cases: cell-based
[1] = system: normal human subcutaneous preadipocytes differentiated into adipocytes; test: Cytotoxicity of steviol to adipocytes (WST-8 viable cell count); conditions: for Relative viable cell count (%): 10 days, Control=100%
Method: 5×10^5 normal human subcutaneous preadipocytes (Cat. No. PT-5020, Lonza Group AG) were precultured for 6 days in a T75 flask using a growth medium (PBM-2 medium supplemented with 10% FBS, 2 mM L-glutamine, 50 μg/mL gentamycin, and 37 ng/mL amphotericin-B, Cat. No. PT-8002, Lonza Group AG) in a CO2 incubator (37° C., 5% CO2; the same holds true for the description below). The cells were detached using 0.25% trypsin-EDTA, seeded at 10,000 cells/100 μL/well in a 96-well plate using the growth medium, and cultured overnight in a CO2 incubator. On the next day, the medium was replaced with 100 μL of a differentiation medium (PBM-2 medium supplemented with 10% FBS, 2 mM L-glutamine, 50 μg/mL gentamycin, 37 ng/mL amphotericin-B, insulin, dexamethasone, indomethacin, and 3-isobutyl-1-methylxanthine (IBMX), Cat. No. PT-8002, Lonza Group AG: the same holds true for the description below) supplemented with varying concentrations of steviol (0.001, 0.01, 0.1, 1, 10 or 100 μg/mL, dissolved in 0.1% DMSO (final concentration)). The cells were cultured for 10 days in a CO2 incubator to induce their differentiation into adipocytes. On the fourth and seventh days after the differentiation induction, the medium was replaced with a fresh medium (100 μL) having the same composition as above. A vehicle control composed of a differentiation medium supplemented with 0.1% DMSO (final concentration) was used as a negative control. Viable cell count measurement was performed by the WST-8 method. Specifically, the medium of each well after culture was replaced with a differentiation medium (100 μL) supplemented with a 1/10 amount of viable cell count measurement reagent SF, and the cells were incubated in a CO2 incubator. 30 minutes later and 90 minutes later, absorbance (450 nm, reference wavelength: 630 nm) was measured using a plate reader (VARIOSKAN FLASH, Thermo Fisher Scientific Inc.), and absorbance difference per 60 minutes was regarded as a relative viable cell count (Control=100%).

[2] = system: adipocytes differentiated from normal human subcutaneous preadipocytes; test: Lipolysis test in adipocytes (free glycerol in culture supernatant); conditions: for Relative lipolysis level (%): 24 hours, DMSO=100%
Method: Normal human subcutaneous preadipocytes were precultured using the growth medium in the same manner as in Example 1. The cells were detached using 0.25% trypsin-EDTA, seeded at 10,000 cells/100 μL/well to a 96-well plate using the growth medium, and cultured overnight in a CO2 incubator. On the next day, the medium was replaced with the differentiation medium (100 μL), and the cells were cultured for 10 days in a CO2 incubator to induce their differentiation into adipocytes. On the fourth and seventh days after the differentiation induction, the medium was replaced with a fresh differentiation medium (100 μL). Next, the medium was replaced with a differentiation medium supplemented with varying concentrations of steviol (10, 30 or 100 μg/mL, dissolved in 0.1% DMSO (final concentration)), and the cells were cultured for 24 hours in a CO2 incubator. Then, a free glycerol level in a culture supernatant was measured using Adipolysis Assay Kit (Cat. No. 10009381, Cayman Chemical Co.) according to the manufacturer's protocol. For the measurement, absorbance (540 nm) was measured using a plate reader (VARIOSKAN FLASH, Thermo Fisher Scientific Inc.), and a relative free glycerol concentration was calculated. A differentiation medium supplemented with 10 μM isoproterenol (ISP) was used as a positive control, and a vehicle control (DMSO) composed of a differentiation medium supplemented with 0.1% DMSO (final concentration) and a no-addition control composed of only the differentiation medium were used as negative controls. Significant difference among the test groups to be compared (no-addition group vs positive control group, vehicle control group vs steviol addition group) was tested by the Student's t test. The two-tailed test was conducted, and P<0.05 was regarded as having significant difference.

[3] = system: normal human subcutaneous preadipocytes differentiated into adipocytes; test: Fat accumulation test in adipocytes (oil red staining); conditions: for Relative fat accumulation level (%): 10 days, DMSO=100%
Method: Normal human subcutaneous preadipocytes were precultured using the growth medium in the same manner as in Example 1. The cells were detached using 0.25% trypsin-EDTA, seeded at 10,000 cells/100 μL/well to a 96-well plate using a growth medium, and cultured overnight in a CO2 incubator. On the next day, the medium was replaced with 100 μL of a differentiation medium supplemented with varying concentrations of steviol (12.5, 25, 50, 100 or 200 μg/mL, dissolved in 0.1% DMSO (final concentration)). The cells were cultured for 10 days in a CO2 incubator to induce their differentiation into adipocytes. On the fourth and seventh days after the differentiation induction, the medium was replaced with a fresh medium (100 μL) having the same composition as above. A differentiation medium supplemented with 25 mM LiCl (Cat. No. SML0559, Sigma-Aldrich Co., LLC) was used as a positive control, and a differentiation medium supplemented with 0.1% DMSO (final concentration) was used as a negative control. Cells cultured in a growth medium were used as an untreated control (Untreated). The cells thus cultured were subjected to oil red staining. Specifically, the cells were washed twice with 100 μL of DPBS (Cat. No. 14190250, Thermo Fisher Scientific Inc.). Then, the cells were fixed (room temperature, 10 min) in 100 μL of a 10% formalin solution (Cat. No. 061-00416, FUJIFILM Wako Pure Chemical Corp.). The cells were washed twice with 100 μL of DPBS, then incubated for 1 minute in 100 μL of 60% 2-propanol (Cat. No. 166-04836, FUJIFILM Wako Pure Chemical Corp.) that replaced the medium, and stained for 15 minutes in 100 μL of an oil red staining solution (Cat. No. 00625, Sigma-Aldrich Co., LLC) that replaced the 2-propanol solution. The cells were washed once with 100 μL of 60% 2-propanol and washed twice with 100 μL of DPBS. Then, cell images were taken in 100 μL of DPBS. After subsequent replacement with 120 μL of 100% 2-propanol, oil red was extracted by incubation for 5 minutes, and 100 μL of the extracts was transferred to each well of a fresh 96-well plate. Absorbance (520 nm) was measured using a plate reader (VARIOSKAN FLASH, Thermo Fisher Scientific Inc.), and a relative fat accumulation level was calculated. Significant difference of differentiation non-induced group vs differentiation induced group (negative control group) was tested (two-tailed), and P<0.05 was regarded as having significant difference. Also, significant difference of negative control group vs steviol addition group/positive control group was tested (two-tailed) by the Dunnett test, and P<0.05 was regarded as having significant difference.

Question: Which “cytotoxicity to adipocytes (in words)” value ([1]; 100 μg/mL steviol) does the source give for `C=C1C[C@@]23CC[C@H]4[C@@](C)(CCC[C@@]4(C)C(=O)O)[C@@H]2CC[C@]1(O)C3` [Steviol, steviol] here?
Answer: Its value is “no particular cytotoxicity to be noted was found”.

Question: What about the “Relative viable cell count (%)” value ([1]; steviol 0.01 μg/mL) of the same molecule?
Answer: Its value is 101.8%.

Question: What about the “Relative viable cell count (%)” value ([1]; steviol 0.1 μg/mL) of the same molecule?
Answer: Its value is 101.7%.

Question: What about the “Relative viable cell count (%)” value ([1]; steviol 1 μg/mL) of the same molecule?
Answer: Its value is 95.0%.

Question: What about the “Relative viable cell count (%)” value ([1]; steviol 10 μg/mL) of the same molecule?
Answer: The value was 103.6%.

Question: And the “Relative viable cell count (%)” value ([1]; steviol 100 μg/mL)?
Answer: The value was 93.1%.

Question: What about the “lipolysis in adipocytes (in words)” value ([2]; 10, 30 or 100 μg/mL) of the same molecule?
Answer: Its value is “promoted lipolysis in adipocytes in a concentration-dependent manner”.

Question: What about the “Relative lipolysis level (%)” value ([2]; steviol 10 μg/mL) of the same molecule?
Answer: Its value is 99.5%.

Question: What about the “Relative lipolysis level (%)” value ([2]; steviol 30 μg/mL) of the same molecule?
Answer: The value was 115.5%.

Question: And the “Relative lipolysis level (%)” value ([2]; steviol 100 μg/mL)?
Answer: Its value is 123.4%.

Question: What about the “fat accumulation in adipocytes (in words)” value ([3]; 12.5 to 200 μg/mL) of the same molecule?
Answer: The value was “suppressed fat accumulation in adipocytes in a concentration-dependent manner”.

Question: What about the “Relative fat accumulation level (%)” value ([3]; steviol 12.5 μg/mL) of the same molecule?
Answer: Its value is 98.3%.

Question: What about the “Relative fat accumulation level (%)” value ([3]; steviol 25 μg/mL) of the same molecule?
Answer: The value was 91.3%.

Question: And the “Relative fat accumulation level (%)” value ([3]; steviol 50 μg/mL)?
Answer: The value was 80.7%.

Question: And the “Relative fat accumulation level (%)” value ([3]; steviol 100 μg/mL)?
Answer: The value was 70.8%.

Question: And the “Relative fat accumulation level (%)” value ([3]; steviol 200 μg/mL)?
Answer: Its value is 40.0%.
